This passage reports IC50 results from US9573956B2, “Compounds as dual inhibitors of phosphodiesterases and histone deacetylases” (FUNDACIÓN PARA LA INVESTIGACIÓN MÉDICA APLICADA, priority 2013, dated 2017).

Holding throughout (type): biochemical
Experiment [1] has as its target T1, PDE5A (Homo sapiens, UniProt O76074).
T1 construct: they are full-length with N-terminal GST tag; GST (N); purchased BPS Biosciences 60050; host or cells: baculovirus infected Sf9 cells
Put plainly: PDE enzyme activity assay (HTRF cGMP), PDE5A. The conditions noted are these: recombinant enzyme; read-out: PDE5A1 inhibition (IC50).

Experiment [2] concerns the target HDAC1 (Homo sapiens, UniProt Q13547). As to the kind of experiment: HDAC enzyme activity assay (fluorogenic substrate), HDAC1. Conditions: recombinant enzyme; read-out: HDAC1 inhibition (IC50).
Experiment [3] concerns the target T2, PDE9A isoform b (Homo sapiens, UniProt O76083).
T2 construct: they are full-length with N-terminal GST tag; GST (N); purchased BPS Biosciences 60090; host or cells: baculovirus infected Sf9 cells
As to the kind of experiment: PDE enzyme activity assay (HTRF cGMP), PDE9A. Conditions: recombinant enzyme; read-out: PDE9A inhibition (IC50). For orientation: In TR-FRET formats the signal depends on donor and acceptor labels being close together.

For experiment [4], the target named is T3, HDAC6 (Homo sapiens, UniProt Q9UBN7).
T3 construct: BC069243; Cat. #50006) is full-length with N-terminal GST tag; GST (N); purchased BPS Biosciences 50006; host or cells: baculovirus infected Sf9 cells
T3 sequence (Q9UBN7 1-1215): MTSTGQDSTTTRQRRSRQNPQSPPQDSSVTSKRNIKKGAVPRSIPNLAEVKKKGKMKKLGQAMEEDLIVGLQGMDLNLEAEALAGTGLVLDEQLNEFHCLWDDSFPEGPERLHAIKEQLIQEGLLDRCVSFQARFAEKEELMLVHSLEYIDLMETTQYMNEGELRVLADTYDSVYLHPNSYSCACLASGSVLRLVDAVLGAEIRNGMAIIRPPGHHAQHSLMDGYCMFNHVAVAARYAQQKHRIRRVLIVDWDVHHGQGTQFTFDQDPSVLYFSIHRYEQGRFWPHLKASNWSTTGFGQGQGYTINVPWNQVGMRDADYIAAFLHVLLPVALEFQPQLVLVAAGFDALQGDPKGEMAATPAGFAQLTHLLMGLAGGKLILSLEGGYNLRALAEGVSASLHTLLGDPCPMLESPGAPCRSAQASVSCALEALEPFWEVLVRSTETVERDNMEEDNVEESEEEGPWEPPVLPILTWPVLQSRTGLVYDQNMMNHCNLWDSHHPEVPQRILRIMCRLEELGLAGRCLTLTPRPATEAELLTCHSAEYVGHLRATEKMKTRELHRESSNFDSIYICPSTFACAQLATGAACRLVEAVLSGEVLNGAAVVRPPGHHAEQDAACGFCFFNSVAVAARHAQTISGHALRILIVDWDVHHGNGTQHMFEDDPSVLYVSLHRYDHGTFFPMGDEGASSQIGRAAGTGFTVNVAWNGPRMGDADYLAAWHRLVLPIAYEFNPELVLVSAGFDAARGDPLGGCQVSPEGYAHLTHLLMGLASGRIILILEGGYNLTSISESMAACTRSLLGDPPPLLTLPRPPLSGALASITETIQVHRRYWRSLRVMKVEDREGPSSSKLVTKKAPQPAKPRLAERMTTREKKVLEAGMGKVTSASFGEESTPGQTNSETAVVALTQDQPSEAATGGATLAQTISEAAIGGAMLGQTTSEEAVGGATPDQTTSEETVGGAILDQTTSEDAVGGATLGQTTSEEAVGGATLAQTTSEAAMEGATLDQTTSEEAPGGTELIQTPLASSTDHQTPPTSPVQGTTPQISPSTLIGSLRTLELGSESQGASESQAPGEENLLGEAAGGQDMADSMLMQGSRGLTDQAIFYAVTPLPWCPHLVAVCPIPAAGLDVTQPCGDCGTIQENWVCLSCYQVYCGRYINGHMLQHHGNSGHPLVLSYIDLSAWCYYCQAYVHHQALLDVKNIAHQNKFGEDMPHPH
As to the kind of experiment: HDAC enzyme activity assay (fluorogenic substrate), HDAC6. The conditions noted are these: recombinant enzyme; read-out: HDAC6 inhibition (IC50).

Experiment [5] has as its target T4, HDAC2 (Homo sapiens, UniProt Q92769).
T4 construct: NM_001527; Cat. #50002) is full-length with C-terminal his tag; His (C); purchased BPS Biosciences 50002; host or cells: baculovirus infected Sf9 cells
As to the kind of experiment: HDAC enzyme activity assay (fluorogenic substrate), HDAC2. The conditions noted are these: recombinant enzyme; read-out: HDAC2 inhibition (IC50).

T4 sequence (Q92769 whole entry): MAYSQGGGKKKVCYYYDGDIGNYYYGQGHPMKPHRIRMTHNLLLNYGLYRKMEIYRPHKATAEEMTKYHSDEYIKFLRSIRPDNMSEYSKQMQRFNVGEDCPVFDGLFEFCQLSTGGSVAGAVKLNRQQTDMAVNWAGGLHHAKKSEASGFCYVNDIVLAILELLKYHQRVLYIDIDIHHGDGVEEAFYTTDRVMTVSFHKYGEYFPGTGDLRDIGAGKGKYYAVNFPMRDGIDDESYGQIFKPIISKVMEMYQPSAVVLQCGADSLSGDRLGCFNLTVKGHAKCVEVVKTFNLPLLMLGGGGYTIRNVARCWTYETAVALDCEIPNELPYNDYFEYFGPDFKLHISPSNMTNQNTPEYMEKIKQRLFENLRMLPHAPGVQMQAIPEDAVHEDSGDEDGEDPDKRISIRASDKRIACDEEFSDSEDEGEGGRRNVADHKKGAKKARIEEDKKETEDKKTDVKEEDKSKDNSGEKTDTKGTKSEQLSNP
Chain of HDAC1 (Q13547 whole entry, canonical isoform): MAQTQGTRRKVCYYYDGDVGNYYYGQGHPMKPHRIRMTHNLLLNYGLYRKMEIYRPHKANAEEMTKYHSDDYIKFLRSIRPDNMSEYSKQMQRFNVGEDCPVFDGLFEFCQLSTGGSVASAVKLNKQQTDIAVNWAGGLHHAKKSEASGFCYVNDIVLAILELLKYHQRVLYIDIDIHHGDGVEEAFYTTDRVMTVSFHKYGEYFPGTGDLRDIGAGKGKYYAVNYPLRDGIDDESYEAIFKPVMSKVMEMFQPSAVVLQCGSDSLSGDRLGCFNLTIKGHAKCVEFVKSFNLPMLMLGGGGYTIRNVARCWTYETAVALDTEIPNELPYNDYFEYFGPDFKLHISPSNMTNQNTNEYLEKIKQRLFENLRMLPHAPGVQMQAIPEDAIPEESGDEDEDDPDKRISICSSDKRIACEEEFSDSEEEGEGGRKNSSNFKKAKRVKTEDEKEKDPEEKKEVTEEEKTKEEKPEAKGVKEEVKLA
T2 sequence (O76083 1-533 isoform O76083-2): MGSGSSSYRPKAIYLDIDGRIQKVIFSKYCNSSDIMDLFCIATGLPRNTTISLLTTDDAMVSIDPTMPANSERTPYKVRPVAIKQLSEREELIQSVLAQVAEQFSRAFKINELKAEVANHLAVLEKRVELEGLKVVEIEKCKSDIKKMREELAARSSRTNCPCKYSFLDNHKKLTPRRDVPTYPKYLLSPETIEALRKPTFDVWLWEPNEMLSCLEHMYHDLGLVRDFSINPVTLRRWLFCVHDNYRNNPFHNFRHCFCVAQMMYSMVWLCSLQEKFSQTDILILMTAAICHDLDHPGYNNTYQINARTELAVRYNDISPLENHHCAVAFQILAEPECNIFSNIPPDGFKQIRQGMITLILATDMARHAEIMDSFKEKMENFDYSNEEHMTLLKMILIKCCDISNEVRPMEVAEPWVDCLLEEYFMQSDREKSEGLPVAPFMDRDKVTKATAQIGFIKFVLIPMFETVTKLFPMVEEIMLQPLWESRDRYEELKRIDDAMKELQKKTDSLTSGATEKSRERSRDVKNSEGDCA

For the molecule `CC1CN(CC2CCN(c3ncc(C(=O)NO)cn3)CC2)CC1c1nc2c(cnn2C2CCOCC2)c(=O)[nH]1` (racemic) [Example 3-02, 2-(4-((3-(4,5-Dihydro-1-(tetrahydro-2H-pyran-4-yl)-4-oxo-1H-pyrazolo[3,4-d]pyrimidin-6-yl)-4-methylpyrrolidin-1-yl)methyl)piperidin-1-yl)-N-hydroxypyrimidine-5-carboxamide], the figures for the IC50 in experiment [1], in experiment [2] and in experiment [3] were 1000 to 10000 nM, 10 to 1000 nM and 10 to 1000 nM, respectively.

Consider `C[C@@H]1CN(Cc2ncc(-c3ccc(C(=O)NO)cc3)cn2)C[C@H]1c1nc2c(cnn2C2CCOCC2)c(=O)[nH]1` (racemic) [Example 3-04], for which the IC50 in experiment [2] was 10 to 1000 nM; in experiment [3] it was < 10 nM.

In the case of `C[C@@H]1CN(Cc2cnc(N3CCC(C(=O)NO)CC3)nc2)C[C@H]1c1nc2c(cnn2C2CCOCC2)c(=O)[nH]1` (racemic) [Example 3-08], the IC50 lay in the range of 1000 to 10000 nM in experiment [2] and 10 to 1000 nM in experiment [3].

As for `C[C@H]1CN(Cc2ccc(C(=O)NO)cc2)C[C@@H]1c1nc2c(cnn2C2CCOCC2)c(=O)[nH]1` (racemic) [Example 3-09, 4-[[(3R,4R)-3-methyl-4-(4-oxo-1-tetrahydropyran-4-yl-5H-pyrazolo[3,4-d]pyrimidin-6-yl)pyrrolidin-1-yl]methyl]benzenecarbohydroxamic acid], the IC50 in experiment [4] and in experiment [3] was 10 to 1000 nM in each case.

On to `C[C@@H]1CN(Cc2ccc(C(=O)NO)s2)C[C@H]1c1nc2c(cnn2C2CCOCC2)c(=O)[nH]1` (racemic) [Example 3-10], for which the IC50 in experiment [4] and in experiment [3] was 10 to 1000 nM in each case.

`C[C@@H]1CN(Cc2ccc(C(=O)NO)cc2)C[C@H]1c1nc2c(cnn2C2CCCC2)c(=O)[nH]1` (racemic) [Example 3-11]: the IC50 in experiment [4] and in experiment [3] was 10 to 1000 nM throughout.

As for `CC1CN(CC2CC(C(=O)NO)C2)CC1c1nc2c(cnn2C2CCOCC2)c(=O)[nH]1` (racemic) [Example 3-12], the IC50 is 1000 to 10000 nM in experiment [2], 1000 to 10000 nM in experiment [4], > 10000 nM in experiment [5] and 10 to 1000 nM in experiment [3].

As for `CC1CN(Cc2ccc(C(=O)NO)s2)CC1c1nc2c(cnn2C2CCCC2)c(=O)[nH]1` (racemic) [Example 3-17], the IC50 is 10 to 1000 nM in experiment [2], 10 to 1000 nM in experiment [4], 1000 to 10000 nM in experiment [5] and < 10 nM in experiment [3].

As to `CCCc1nn(C)c2c(=O)[nH]c(-c3cc(S(=O)(=O)Nc4ccc(/C=C/C(=O)NO)cc4)ccc3OCC)nc12` [Example 1-03], the IC50 in experiment [1] was < 10 nM; in experiment [2], 10 to 1000 nM; in experiment [5], 10 to 1000 nM; in experiment [3], 1000 to 10000 nM.

Regarding `CCCc1nn(C)c2c(=O)[nH]c(-c3cc(C4CC(C(=O)NO)C4)ccc3OCC)nc12` (centres unmarked) [Example 1-85, 3-[4-ethoxy-3-(1-methyl-7-oxo-3-propyl-6H-pyrazolo[4,3-d]pyrimidin-5-yl)phenyl]cyclobutanecarbohydroxamic acid], the IC50 in experiment [1] fell in the range of 10 to 1000 nM; in experiment [2] it was 1000 to 10000 nM; in experiment [4], 10 to 1000 nM; in experiment [5], 1000 to 10000 nM.

Consider `CCCc1nn(C)c2c(=O)[nH]c(-c3cc(CC4CC4C(=O)NO)ccc3OCC)nc12` (centres unmarked) [Example 1-86, 2-[[4-ethoxy-3-(1-methyl-7-oxo-3-propyl-6H-pyrazolo[4,3-d]pyrimidin-5-yl)phenyl]methyl]cyclopropanecarbohydroxamic acid], for which the IC50 in experiment [1] was 10 to 1000 nM; in experiment [2] it was 1000 to 10000 nM; in experiment [4], 1000 to 10000 nM; in experiment [5], > 10000 nM.

`CCCc1nc(C)c2c(=O)[nH]c(-c3cc(S(=O)(=O)N4CCN(CCCC(=O)NO)CC4)ccc3OCC)nn12` [Example 2-02, 4-[4-[4-ethoxy-3-(5-methyl-4-oxo-7-propyl-3H-imidazo[5,1-f][1,2,4]triazin-2-yl)phenyl]sulfonylpiperazin-1-yl]butanehydroxamic acid]: the values for the half-inhibitory concentration (IC50) in experiment [1], in experiment [2] and in experiment [3] were < 10 nM, 10 to 1000 nM and 10 to 1000 nM, respectively.

For the molecule `CCCc1nc(C)c2c(=O)[nH]c(-c3cc(S(=O)(=O)Nc4ccc(/C=C/C(=O)NO)cc4)ccc3OCC)nn12` [Example 2-03], the figures for the IC50 in experiment [1], in experiment [2] and in experiment [3] were < 10 nM, 10 to 1000 nM and 1000 to 10000 nM, respectively.

For the molecule `CCCc1nc(C)c2c(=O)[nH]c(-c3cc(S(=O)(=O)N4CCN(c5ncc(C(=O)NO)cn5)CC4)ccc3OCC)nn12` [Example 2-05], the IC50 in experiment [1] was < 10 nM; in experiment [2], < 10 nM; in experiment [3] it was > 10000 nM.

On to `CCCc1nc(C)c2c(=O)[nH]c(-c3cc(Cc4ccc(/C=C/C(=O)NO)cc4)ccc3OCC)nn12` [Example 2-08], for which the IC50 was < 10 nM in experiment [1], 1000 to 10000 nM in experiment [2], 10 to 1000 nM in experiment [4] and 1000 to 10000 nM in experiment [5].

On to `CC(c1nc2c(cnn2C2CCOCC2)c(=O)[nH]1)N1CC(Oc2ccc(-c3ccc(C(=O)NO)cc3)cc2)C1` (centres unmarked) [Example 3-03, 4-[4-[1-[1-(4-Oxo-1-tetrahydropyran-4-yl-5H-pyrazolo[3,4-d]pyrimidin-6-yl)ethyl]azetidin-3-yl]oxyphenyl]benzene carbohydroxamic acid], for which the figures for the IC50 in experiment [1], in experiment [2] and in experiment [3] were > 10000 nM, 1000 to 10000 nM and 10 to 1000 nM, respectively.

In the case of `CC(c1nc2c(cnn2C2CCOCC2)c(=O)[nH]1)N1CC(Oc2ccc(N3CCC(C(=O)NO)CC3)cc2)C1` (centres unmarked) [Example 3-05], the IC50 was > 10000 nM in experiment [2] and 10 to 1000 nM in experiment [3].

Consider `CC(c1nc2c(cnn2C2CCOCC2)c(=O)[nH]1)N1CC(Oc2ccc(/C=C/C(=O)NO)cc2)C1` (centres unmarked) [Example 3-06], for which the figures for the IC50 in experiment [2] and in experiment [3] were 10 to 1000 nM and < 10 nM, respectively.

Turning to `CC(c1nc2c(cnn2C2CCOCC2)c(=O)[nH]1)N1CC(OC2CCN(c3ncc(C(=O)NO)cn3)CC2)C1` (centres unmarked) [Example 3-07], the IC50 in experiment [2] and in experiment [3] was 10 to 1000 nM each time.

With `CC(c1nc2c(cnn2C2CCOCC2)c(=O)[nH]1)N1CC(Oc2ccc(C(=O)NO)cc2)C1` (centres unmarked) [Example 3-13], the IC50 fell in the range of 10 to 1000 nM in experiment [2], 10 to 1000 nM in experiment [4], 1000 to 10000 nM in experiment [5] and 10 to 1000 nM in experiment [3].

With `CC(c1nc2c(cnn2C2CCOCC2)c(=O)[nH]1)N1CC(Cc2ccc(C(=O)NO)cc2)C1` (centres unmarked) [Example 3-15], the half-maximal inhibitory concentration (IC50) fell in the range of 1000 to 10000 nM in experiment [2], 10 to 1000 nM in experiment [4], 1000 to 10000 nM in experiment [5] and 10 to 1000 nM in experiment [3].

On to `CC(c1nc2c(cnn2C2CCOCC2)c(=O)[nH]1)N1CC(Cc2ccc(C(=O)NO)s2)C1` (centres unmarked) [Example 3-16], for which the IC50 is 1000 to 10000 nM in experiment [2], 1000 to 10000 nM in experiment [4], 1000 to 10000 nM in experiment [5] and 10 to 1000 nM in experiment [3].

As to `O=C(NO)c1cnc(N2CCC(CN3CC(=O)N4[C@H](c5ccc6c(c5)OCO6)c5[nH]c6ccccc6c5C[C@@H]4C3=O)CC2)nc1` [Example 4-05], the IC50 in experiment [1] is 10 to 1000 nM; in experiment [2] it was 10 to 1000 nM; in experiment [4], 10 to 1000 nM; in experiment [5], 10 to 1000 nM; in experiment [3], > 10000 nM.

As for `COc1ccc(C(=O)Nc2c(Cl)cncc2Cl)cc1OC1CCCC1` [Piclamilast, reference compound], the IC50 in experiment [1] is 1000 to 10000 nM; in experiment [3], > 10000 nM.

The term IC50 denotes the concentration that inhibits the measured activity by half.
